Data: patent US9072746B2, “Method for enhancing learning and memory impaired by neurodegenerative disorders and compounds and compositions for effecting the same” (The Board of Trustees of the Leland Stanford Junior …, priority 2010, dated 2015)
Entries after “also recorded” stand apart in the source; their conditions may differ.

Tests used:
Assay type in all cases: in vivo
[1] = test system: male Ts65Dn mice; test: Novel object recognition; settings: xamoterol 3 mg/kg s.c.
Method: (§1) In this part of the study, activity chamber and three cognitive tests, including T-maze spontaneous alternation, contextual fear conditioning (CFC), and novel object recognition were performed. In T-maze spontaneous alternation and contextual fear conditioning, both Ts65Dn and 2N male mice were divided into three treatment groups including normal saline (Vehicle), xamoterol, and betaxolol plus xamoterol groups. In the novel object recognition test, both Ts65Dn and 2N male mice were divided into two treatment groups, normal saline and xamoterol. The T-maze was performed exactly as previously described. […] On the first day (training day), animals were placed in the fear conditioning chamber, and after a 3-minute pre-shock period, they were exposed to 5 shocks (2 s, 0.5 mA,) with inter-trial intervals of 80 seconds and no tone. On the second day, the animals first received xamoterol, xamoterol plus betaxolol, or saline injection, and one hour later, they were placed in the same chamber for 5 minutes. Similar to the previous description of fear conditioning, freezing was defined as the complete lack of motion for a minimum of o.75 second. The Novel Object Recognition task is conducted in an open field arena (40 cm×40 cm). Mice were habituated in the testing room for 1 hour followed by 5 minutes habituation inside the arena without any objects. On 4th day animals were introduced 3 times to arena with 3 identical subjects for 10 minutes with 3 minutes inter trial intervals. On 5th day (24 hours after trainings) one of the objects replaced by a novel one and the time sniffing of each object were used for analysis. For testing the role of β1 adrenergic system, xamoterol and betaxolol (Tocris Bioscience, Ellisville, Mo.) were injected subcutaneously using 10 ml/kg normal saline as vehicle. Xamoterol, (3 mg/kg) was given one hour before testing and betaxolol (1 mg/kg) was given 30 minutes before testing.

[2] = test system: male Ts65Dn mice; test: T-maze spontaneous alternation; settings: for effect on T-maze spontaneous alternation deficit: xamoterol 3 mg/kg s.c.
Description: as §1, with “The T-maze had 3 equal arms (30 cm length, 10 cm width, and 20 cm height). The start arm and 2 goal arms had guillotine gates. This test was based on the rodents' preference to experience a new arm of the T-maze instead of a familiar one ([…], 1998). In each trial, the mouse was placed in the start arm. The gate was then opened and the mouse was able to freely explore the arms. As soon as the mouse entered one goal arm, the sliding gate of the other goal arm closed. The mouse eventually returned to the start arm and the next trial was started. In the next trial, the mouse may recognize the previously chosen goal arm and choose to explore a new arm rather than revisit the previously visited arm. This trial was repeated 11 times per day for 3 consecutive days, for a total of 33 trials. The maze was cleaned with 50% ethanol between trials to eliminate odor. Percent of alternation (number of turns in each goal arm) was used for analysis. This protocol has been described before by Belichenko et al. (2009) and is modified from a Deacon and Rawlins (2006) protocol (Deacon and Rawlins, 2006; Belichenko et al., 2009). […] In this” for “In this”

[3] = test system: male 2N mice; test: T-maze spontaneous alternation; settings: xamoterol 3 mg/kg s.c. 1 h, betaxolol 1 mg/kg s.c. 30 min before testing
Description: as §1, with “The T-maze had 3 equal arms (30 cm length, 10 cm width, and 20 cm height). The start arm and 2 goal arms had guillotine gates. This test was based on the rodents' preference to experience a new arm of the T-maze instead of a familiar one ([…], 1998). In each trial, the mouse was placed in the start arm. The gate was then opened and the mouse was able to freely explore the arms. As soon as the mouse entered one goal arm, the sliding gate of the other goal arm closed. The mouse eventually returned to the start arm and the next trial was started. In the next trial, the mouse may recognize the previously chosen goal arm and choose to explore a new arm rather than revisit the previously visited arm. This trial was repeated 11 times per day for 3 consecutive days, for a total of 33 trials. The maze was cleaned with 50% ethanol between trials to eliminate odor. Percent of alternation (number of turns in each goal arm) was used for analysis. This protocol has been described before by Belichenko et al. (2009) and is modified from a Deacon and Rawlins (2006) protocol (Deacon and Rawlins, 2006; Belichenko et al., 2009). […] In this” for “In this”

[4] = test system: male Ts65Dn mice; test: Exploratory activity in novel environment (Activity Chamber); settings: for effect on locomotor activity (total ambulatory distance moved): xamoterol 3 mg/kg s.c.
Method: as §1, with “The Activity Chamber (Med associates Inc., St. Albans, Vt.) was used for the evaluation of general activity, gross locomotor activity, and exploratory behavior. Assessment took place in a square arena, 43.2×43.2 cm, with 3 planes of infrared detectors within a specially designed sound attenuating chamber, 66×55.9×55.9 cm, under dim light. The animal was placed in the center of the testing arena and allowed to move freely for 30 minutes while being tracked by an automated tracking system. Distance moved, velocity, resting time, and vertical count (rearing) were recorded. […] In this” for “In this”

[5] = test system: male 2N mice; test: as above
Method: as §1, with “The Activity Chamber (Med associates Inc., St. Albans, Vt.) was used for the evaluation of general activity, gross locomotor activity, and exploratory behavior. Assessment took place in a square arena, 43.2×43.2 cm, with 3 planes of infrared detectors within a specially designed sound attenuating chamber, 66×55.9×55.9 cm, under dim light. The animal was placed in the center of the testing arena and allowed to move freely for 30 minutes while being tracked by an automated tracking system. Distance moved, velocity, resting time, and vertical count (rearing) were recorded. […] In this” for “In this”

[6] = xamoterol 3 mg/kg s.c. one hour before testing

SMILES: O=C(NCCNCC(O)COc1ccc(O)cc1)N1CCOCC1 (centres unmarked) [xamoterol]
- % of Total Investigation in Novel Object Recognition, Mean ± SEM [1]: 73.6 ± 4.2%
- effect on novel object recognition deficit [1]: completely rescue; also recorded: corrected
- effect on novel object recognition deficit ([1]; listed as Xamoterol): could correct
- effect on T-maze spontaneous alternation deficit [2]: completely rescue; also recorded: rescued
- % of Spontaneous Alternation in T-maze, Mean ± SEM ([2]; xamoterol 3 mg/kg s.c. 1 h, betaxolol 1 mg/kg s.c. 30 min before testing): 60.4 ± 4.5%
- effect on T-maze spontaneous alternation deficit ([2]; listed as Xamoterol): rescued
- effect on T-maze spontaneous alternation deficit ([2]; listed as Xamoterole): Xamoterole can rescue the deficit in
- % of Spontaneous Alternation in T-maze, Mean ± SEM [3]: 64.4 ± 2.1%
- effect on locomotor activity (total ambulatory distance moved) [4]: no significant effect
- Total Ambulatory Distance Moved in Activity Chamber (cm), Mean ± SEM [4, 6]: 3878 ± 765 cm
- effect on locomotor activity (total ambulatory distance moved) ([4]; listed as Xamoterol): did not show a significant effect
- effect on locomotor activity (total ambulatory distance moved) ([4]; listed as Xamoterole): Xamoterole has no effect on activity
- effect on locomotor activity (total ambulatory distance moved) ([5]; xamoterol 3 mg/kg s.c.): no significant effect
- Total Ambulatory Distance Moved in Activity Chamber (cm), Mean ± SEM [5, 6]: 2554 ± 192 cm
